Data on four compounds can be found in paper PMC12758957 (Thrombosis and Haemostasis, 2025).

By IC50 is commonly meant the concentration needed to halve the response being measured.

Experiment [1] addresses T1, prothrombinase-activated wild-type prothrombin (Homo sapiens, UniProt P00734). In words: Inhibition of pNAPEP-0238 peptidyl substrate conversion in a purified system. The settings on record: wild-type thrombin, observed vs reported (ref 41). It counts as biochemical. As for the experimental part:
(§1) Prothrombin variants were activated to thrombin by prothrombinase immediately prior to analyses. Reaction mixtures of prothrombin variant (1 μM) and preassembled prothrombinase (2 nM FXa, 2 nM FV-810, and 50 μM phospholipid TGT, final concentrations) were incubated for 30 minutes at 25°C in assay buffer, upon which the reaction was quenched in dilution buffer supplemented with 50 mM EDTA.

A further experiment addresses wild-type thrombin. The settings on record: read-out: reported K i, substrate conversion; cited from earlier work.
For the next experiment, the system named is thrombin. As to conditions: read-out: reported IC50, peak thrombin formation; cited from earlier work.
Experiment [2] addresses T1, prothrombinase-activated wild-type prothrombin. As to conditions: 1 μM dabigatran. How it is done: Fibrinogen conversion was determined employing a turbidity assay. […] Turbidity was measured for 1 hour at 25°C and 350 nm.
Experiment [3] has as its target prothrombinase-activated prothrombin-KL3. It counts as biochemical, human. How it is done:
as §1

The next experiment concerns FXa. Set-up: method as in PMID 28904343, PMID 38729577. The settings on record: S4 subsite modified FXa variants; cited from earlier work.

Some results are limits rather than exact numbers.

`CC1CNc2c(cccc2S(=O)(=O)N[C@@H](CCCNC(=N)N)C(=O)N2CC[C@@H](C)C[C@@H]2C(=O)O)C1` (some centres unmarked) [Argatroban]: the “lower K i value observed versus reported” value in experiment [1] turned out to be 13 fold.

With `[H]/N=C(/N)c1ccc(NCc2nc3cc(C(=O)N(CCC(=O)O)c4ccccn4)ccc3n2C)cc1` [Dabigatran], the Ki at wild-type thrombin was 5 nM; in experiment [3] (KL3, Cheng-Prusoff equation), 150 nM. In addition, the IC50 with thrombin is […]; in experiment [3] (5 nM prothrombinase-activated KL3, 50 μM pNAPEP-0238, read-out: IC50, pNAPEP-0238 conversion), 237 ± 33 nM. Moreover, the “fibrinogen conversion by activated wild-type prothrombin (in words)” value in experiment [2] was “no detectable fibrinogen conversion”.

`COc1ccc(-n2nc(C(N)=O)c3c2C(=O)N(c2ccc(N4CCCCC4=O)cc2)CC3)cc1` [apixaban]: in the experiment with FXa, the “hindered FXa active site engagement by inhibitor” value is reported as ≤ 800 fold.

With `O=C(NC[C@H]1CN(c2ccc(N3CCOCC3=O)cc2)C(=O)O1)c1ccc(Cl)s1` [rivaroxaban], in the experiment with FXa, the “hindered FXa active site engagement by inhibitor” value is recorded as ≤ 800 fold.
